Assay results as given in the supplement of paper PMC10307832.

Legend:
Assay in all cases: relative viability (nuclei count vs DMSO), 5 days (fraction); higher = more cells survive
BMX-IN-1 + Pictilisib = compound: C=CC(=O)Nc1cc(-n2c(=O)ccc3cnc4ccc(-c5ccc(NS(C)(=O)=O)cc5)cc4c32)ccc1C [BMX-IN-1] + CS(=O)(=O)N1CCN(Cc2cc3nc(-c4cccc5[nH]ncc45)nc(N4CCOCC4)c3s2)CC1 [Pictilisib] (partner 1 µM)
How it was run: (§1)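 After 5 days of treatment, lung cancer cells in 1536-well plates were fixed and stained in a single step (final 0.05% Triton X-100, 1% formaldehyde, 1 ug/ml Hoechst) and their nuclei counted on 4× images. Treatment had been applied by pin tool the day after seeding as one drug alone or as a fixed anchor-drug dose with five library-drug doses (not always all listed) in √10 steps. Relative viability is the nuclei count of treated wells divided by that of vehicle wells, and values are medians of duplicate plates.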

BMX-IN-1 + Vorinostat = compound: C=CC(=O)Nc1cc(-n2c(=O)ccc3cnc4ccc(-c5ccc(NS(C)(=O)=O)cc5)cc4c32)ccc1C [BMX-IN-1] + O=C(CCCCCCC(=O)Nc1ccccc1)NO [Vorinostat] (partner 1 µM)
How it was run: as §1

PAC-1 + Pictilisib = compound: C=CCc1cccc(/C=N/NC(=O)CN2CCN(Cc3ccccc3)CC2)c1O [PAC-1] + CS(=O)(=O)N1CCN(Cc2cc3nc(-c4cccc5[nH]ncc45)nc(N4CCOCC4)c3s2)CC1 [Pictilisib] (partner 1 µM)
How it was run: as §1

PAC-1 + Vorinostat = compound: C=CCc1cccc(/C=N/NC(=O)CN2CCN(Cc3ccccc3)CC2)c1O [PAC-1] + O=C(CCCCCCC(=O)Nc1ccccc1)NO [Vorinostat] (partner 1 µM)
How it was run: as §1

Cell Line: SK-MES-1
- relative viability (BMX-IN-1 + Pictilisib; first compound 0.02 µM): 0.345
- relative viability (BMX-IN-1 + Pictilisib; first compound 0.2 µM): 0.383
- relative viability (BMX-IN-1 + Pictilisib; first compound 0.6325 µM): 0.414
- relative viability (BMX-IN-1 + Pictilisib; first compound 2 µM): 0.344
- relative viability (BMX-IN-1 + Vorinostat; first compound 0.02 µM): 1.1
- relative viability (BMX-IN-1 + Vorinostat; first compound 0.2 µM): 1.18
- relative viability (BMX-IN-1 + Vorinostat; first compound 0.6325 µM): 1.45
- relative viability (BMX-IN-1 + Vorinostat; first compound 2 µM): 0.717
- relative viability (PAC-1 + Pictilisib; first compound 0.02 µM): 0.336
- relative viability (PAC-1 + Pictilisib; first compound 0.06325 µM): 0.297
- relative viability (PAC-1 + Pictilisib; first compound 0.2 µM): 0.336
- relative viability (PAC-1 + Pictilisib; first compound 2 µM): 0.322
- relative viability (PAC-1 + Vorinostat; first compound 0.02 µM): 1.18
- relative viability (PAC-1 + Vorinostat; first compound 0.06325 µM): 1.09
- relative viability (PAC-1 + Vorinostat; first compound 0.2 µM): 1.02
- relative viability (PAC-1 + Vorinostat; first compound 2 µM): 1.17
